Test results published in ChEMBL document CHEMBL1201862, “PubChem BioAssay data set” (2004).
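96-well plates; 48 h exposure; 5 concentrations. Endpoints by linear interpolation between flanking doses. Not reached: highest tested concentration assigned. Here, GI50 denotes the concentration required for 50% inhibition of growth.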 The source made the active and inactive calls. Cut-off read from the data, not from the text of the source: active = GI50 up to about 1.1 µM and inactive = higher.

Experiments:
Experiment in all cases: inhibition of tumour cell growth, NCI panel, 48 h
[1] = system: SF-268
[2] = system: OVCAR-5
[3] = system: NCI-H460
[4] = system: SF-295
[5] = system: M14
[6] = system: SK-MEL-5
[7] = system: RPMI-8226
[8] = system: OVCAR-4
[9] = system: Hs-578T
[10] = system: PC-3
[11] = system: SW-620
[12] = system: K562
[13] = system: OVCAR-8
[14] = system: T47D
[15] = system: CAKI-1
[16] = system: HOP-92
[17] = system: HOP-62
[18] = system: OVCAR-3
[19] = system: NCI-H23
[20] = system: UACC-62

## Cc1c2c(c(C)n1-c1ccccc1)C(=O)N(CCSC(=N)N)C2=O
[1]
  GI50: > 100 µM (inactive)
[2]
  GI50: > 100 µM (inactive)
[3]
  GI50: 12.3 µM (inactive)
[4]
  GI50: 22.6 µM (inactive)
[5]
  GI50: > 100 µM (inactive)
[6]
  GI50: 1.96 µM (inactive)
[7]
  GI50: > 100 µM (inactive)
[8]
  GI50: 9.29 µM (inactive)
[9]
  GI50: > 100 µM (inactive)
[10]
  GI50: > 100 µM (inactive)
[11]
  GI50: > 100 µM (inactive)
[12]
  GI50: > 100 µM (inactive)
[13]
  GI50: 62.2 µM (inactive)
[14]
  GI50: 1.9 µM (inactive)
[15]
  GI50: 50 µM (inactive)
[16]
  GI50: > 100 µM (inactive)
[17]
  GI50: 83.6 µM (inactive)
[18]
  GI50: > 100 µM (inactive)
[19]
  GI50: 4.85 µM (inactive)
[20]
  GI50: > 100 µM (inactive)

## CC1(C)CCC[C@@]2(C)C1CC[C@@]1(CO)O[C@H](C3=CC(=O)OC3O)C[C@H]12 (stereo not given in full)
[1]
  GI50: 19.7 µM (inactive)
[2]
  GI50: 22.8 µM (inactive)
[3]
  GI50: 17.7 µM (inactive)
[4]
  GI50: 21.5 µM (inactive)
[5]
  GI50: 11.8 µM (inactive)
[6]
  GI50: 5.38 µM (inactive)
[7]
  GI50: 3.87 µM (inactive)
[8]
  GI50: 14.5 µM (inactive)
[9]
  GI50: 14.7 µM (inactive)
[10]
  GI50: 13.8 µM (inactive)
[11]
  GI50: 7.74 µM (inactive)
[12]
  GI50: 4.76 µM (inactive)
[13]
  GI50: 15.6 µM (inactive)
[14]
  GI50: 12.2 µM (inactive)
[15]
  GI50: 15 µM (inactive)
[16]
  GI50: 19.1 µM (inactive)
[17]
  GI50: 14.9 µM (inactive)
[18]
  GI50: 14.9 µM (inactive)
[19]
  GI50: 13.6 µM (inactive)
[20]
  GI50: 3.89 µM (inactive)

## CC(=O)NNc1nc(C)c(C(/C=C/c2ccc([N+](=O)[O-])cc2)=N/N)s1
[1]
  GI50: > 100 µM (inactive)
[2]
  GI50: > 100 µM (inactive)
[3]
  GI50: > 100 µM (inactive)
[4]
  GI50: > 100 µM (inactive)
[5]
  GI50: > 100 µM (inactive)
[6]
  GI50: > 100 µM (inactive)
[7]
  GI50: 30.9 µM (inactive)
[8]
  GI50: > 100 µM (inactive)
[9]
  GI50: > 100 µM (inactive)
[10]
  GI50: > 100 µM (inactive)
[11]
  GI50: > 100 µM (inactive)
[12]
  GI50: 55.5 µM (inactive)
[13]
  GI50: > 100 µM (inactive)
[14]
  GI50: > 100 µM (inactive)
[15]
  GI50: > 100 µM (inactive)
[16]
  GI50: > 100 µM (inactive)
[17]
  GI50: 68.1 µM (inactive)
[18]
  GI50: > 100 µM (inactive)
[19]
  GI50: > 100 µM (inactive)
[20]
  GI50: > 100 µM (inactive)

## COC(=O)C1=C(C(=O)OC)N(c2ccncc2)C(c2ccco2)=CC1c1ccccc1[N+](=O)[O-] (stereo not given)
[1]
  GI50: 4.72 µM (inactive)
[2]
  GI50: 14.6 µM (inactive)
[3]
  GI50: 6.11 µM (inactive)
[4]
  GI50: 6.19 µM (inactive)
[5]
  GI50: 4.21 µM (inactive)
[6]
  GI50: 2.39 µM (inactive)
[7]
  GI50: 1.39 µM (inactive)
[8]
  GI50: 5.97 µM (inactive)
[9]
  GI50: 5.94 µM (inactive)
[10]
  GI50: 11.5 µM (inactive)
[11]
  GI50: 6.9 µM (inactive)
[12]
  GI50: 1.44 µM (inactive)
[13]
  GI50: 8.04 µM (inactive)
[14]
  GI50: 3.78 µM (inactive)
[15]
  GI50: 14.2 µM (inactive)
[16]
  GI50: 14.1 µM (inactive)
[17]
  GI50: 15.5 µM (inactive)
[18]
  GI50: 5.27 µM (inactive)
[19]
  GI50: 13.9 µM (inactive)
[20]
  GI50: 9.91 µM (inactive)

## CCN(CC)CCNc1ccc2nnn3c4ccc(O)cc4c(=O)c1c23
[1]
  GI50: 6.49 µM (inactive)
[2]
  GI50: 8.02 µM (inactive)
[3]
  GI50: 0.0314 µM (active)
[4]
  GI50: 2.35 µM (inactive)
[5]
  GI50: 6.65 µM (inactive)
[6]
  GI50: 1.64 µM (inactive)
[7]
  GI50: 2 µM (inactive)
[8]
  GI50: 2.64 µM (inactive)
[9]
  GI50: 10.7 µM (inactive)
[10]
  GI50: 3.09 µM (inactive)
[11]
  GI50: 0.583 µM (active)
[12]
  GI50: 1.62 µM (inactive)
[13]
  GI50: 1.49 µM (inactive)
[14]
  GI50: 18.5 µM (inactive)
[15]
  GI50: 0.69 µM (active)
[16]
  GI50: 4.35 µM (inactive)
[17]
  GI50: 1.76 µM (inactive)
[18]
  GI50: 8.02 µM (inactive)
[19]
  GI50: 5.73 µM (inactive)
[20]
  GI50: 8.39 µM (inactive)

## OCCCCCCOc1ccc(-c2cc(-c3ccccn3)nc(-c3ccccn3)c2)cc1
[1]
  GI50: 0.0668 µM (active)
[2]
  GI50: 0.489 µM (active)
[3]
  GI50: 0.104 µM (active)
[4]
  GI50: 0.194 µM (active)
[5]
  GI50: 0.202 µM (active)
[6]
  GI50: 0.243 µM (active)
[7]
  GI50: 0.134 µM (active)
[8]
  GI50: 0.177 µM (active)
[9]
  GI50: 0.419 µM (active)
[10]
  GI50: 0.034 µM (active)
[11]
  GI50: 0.367 µM (active)
[12]
  GI50: 0.0728 µM (active)
[13]
  GI50: 0.136 µM (active)
[14]
  GI50: 0.148 µM (active)
[15]
  GI50: 0.256 µM (active)
[16]
  GI50: 0.643 µM (active)
[17]
  GI50: 0.172 µM (active)
[18]
  GI50: 0.22 µM (active)
[19]
  GI50: 0.604 µM (active)
[20]
  GI50: 0.149 µM (active)

## COc1cc(Br)c(CC2C3=C(CCN2C(=O)C2CCC2)CC2(CC3)OCCO2)cc1O (stereo not given)
[1]
  GI50: 83.9 µM (inactive)
[2]
  GI50: > 100 µM (inactive)
[3]
  GI50: 50.2 µM (inactive)
[4]
  GI50: 49.7 µM (inactive)
[5]
  GI50: 62.5 µM (inactive)
[6]
  GI50: 35.3 µM (inactive)
[7]
  GI50: 36.6 µM (inactive)
[8]
  GI50: 34.4 µM (inactive)
[9]
  GI50: 33.8 µM (inactive)
[10]
  GI50: 46.6 µM (inactive)
[11]
  GI50: 80.2 µM (inactive)
[12]
  GI50: 31.6 µM (inactive)
[13]
  GI50: > 100 µM (inactive)
[14]
  GI50: 29.9 µM (inactive)
[15]
  GI50: 68.4 µM (inactive)
[16]
  GI50: 56.4 µM (inactive)
[17]
  GI50: > 100 µM (inactive)
[18]
  GI50: 33.5 µM (inactive)
[19]
  GI50: 28.8 µM (inactive)
[20]
  GI50: 53.8 µM (inactive)
